Results published in ChEMBL document CHEMBL1201862, “PubChem BioAssay data set” (2004).
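48-hour exposure; five concentrations; linearly interpolated endpoints. The concentration for 50% growth inhibition is given as GI50.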 Calls of active or inactive are those of the source. Rule as the data show it: active = GI50 up to about 1.1 µM and inactive = higher.

Legend:
Assay in all cases: NCI-60 cell line screen, 48 h
[1] = system: M14
[2] = system: CCRF-CEM
[3] = system: EKVX
[4] = system: TK-10
[5] = system: OVCAR-5
[6] = system: SNB-75
[7] = system: HCT-15
[8] = system: 786-0
[9] = system: NCI-H23
[10] = system: PC-3
[11] = system: UACC-257
[12] = system: NCI-H460
[13] = system: Malme-3M
[14] = system: NCI/ADR-RES
[15] = system: SNB-19
[16] = system: OVCAR-3
[17] = system: LOX IMVI
[18] = system: SK-MEL-28
[19] = system: KM12
[20] = system: A549
[21] = system: SN12C
[22] = system: NCI-H522
[23] = system: MDA-MB-435
[24] = system: COLO 205
[25] = system: SK-OV-3
[26] = system: UACC-62
[27] = system: RXF 393
[28] = system: SF-539
[29] = system: A498
[30] = system: SR
[31] = system: Hs-578T
[32] = system: MCF7
[33] = system: HOP-62
[34] = system: SK-MEL-2
[35] = system: IGROV-1
[36] = system: SF-268
[37] = system: HOP-92
[38] = system: SF-295
[39] = system: CAKI-1
[40] = system: HCT-116
[41] = system: HT-29
[42] = system: DU-145
[43] = system: ACHN
[44] = system: UO-31
[45] = system: BT-549
[46] = system: HL-60
[47] = system: OVCAR-8
[48] = system: HCC 2998
[49] = system: SW-620
[50] = system: MDA-MB-231
[51] = system: RPMI-8226
[52] = system: SK-MEL-5
[53] = system: OVCAR-4
[54] = system: T47D
[55] = system: MDA-N
[56] = system: U-251
[57] = system: MOLT-4
[58] = system: NCI-H226
[59] = system: K562

Cc1cc2c(SCc3ccccc3Cl)nc(N)nc2nc1C
GI50 [1]: > 100 µM (inactive) | GI50 [2]: > 100 µM (inactive) | GI50 [3]: > 100 µM (inactive) | GI50 [4]: > 100 µM (inactive) | GI50 [5]: > 100 µM (inactive) | GI50 [6]: > 100 µM (inactive) | GI50 [7]: > 100 µM | GI50 [8]: > 100 µM (inactive) | GI50 [9]: > 100 µM (inactive) | GI50 [10]: > 100 µM (inactive) | GI50 [11]: > 100 µM (inactive) | GI50 [12]: > 100 µM (inactive) | GI50 [13]: > 100 µM (inactive) | GI50 [14]: > 100 µM (inactive) | GI50 [15]: > 100 µM (inactive) | GI50 [16]: > 100 µM (inactive) | GI50 [17]: > 100 µM (inactive) | GI50 [18]: > 100 µM (inactive) | GI50 [19]: > 100 µM (inactive) | GI50 [20]: > 100 µM (inactive) | GI50 [21]: > 100 µM (inactive) | GI50 [22]: 21.4 µM (inactive) | GI50 [23]: > 100 µM (inactive) | GI50 [24]: > 100 µM (inactive) | GI50 [25]: > 100 µM (inactive) | GI50 [26]: > 100 µM (inactive) | GI50 [27]: > 100 µM (inactive) | GI50 [28]: > 100 µM (inactive) | GI50 [29]: > 100 µM (inactive) | GI50 [30]: > 100 µM (inactive) | GI50 [31]: 36.3 µM (inactive) | GI50 [32]: > 100 µM (inactive) | GI50 [33]: > 100 µM (inactive) | GI50 [34]: > 100 µM (inactive) | GI50 [35]: > 100 µM (inactive) | GI50 [36]: 65.5 µM (inactive) | GI50 [37]: 62.4 µM (inactive) | GI50 [38]: 97.5 µM (inactive) | GI50 [39]: > 100 µM (inactive) | GI50 [40]: > 100 µM (inactive) | GI50 [41]: > 100 µM (inactive) | GI50 [42]: > 100 µM (inactive) | GI50 [43]: > 100 µM (inactive) | GI50 [44]: 1.79 µM (inactive) | GI50 [45]: > 100 µM (inactive) | GI50 [46]: > 100 µM (inactive) | GI50 [47]: > 100 µM (inactive) | GI50 [48]: > 100 µM (inactive) | GI50 [49]: > 100 µM (inactive) | GI50 [50]: > 100 µM (inactive) | GI50 [51]: > 100 µM (inactive) | GI50 [52]: > 100 µM (inactive) | GI50 [53]: > 100 µM (inactive) | GI50 [54]: > 100 µM (inactive) | GI50 [55]: > 100 µM (inactive) | GI50 [56]: > 100 µM (inactive)

O=C1NC(N2CCOCC2)=N/C1=C\c1ccc(O)cc1
GI50 [1]: > 100 µM (inactive) | GI50 [2]: > 100 µM (inactive) | GI50 [3]: > 100 µM (inactive) | GI50 [4]: > 100 µM (inactive) | GI50 [5]: > 100 µM (inactive) | GI50 [6]: 15.7 µM (inactive) | GI50 [7]: > 100 µM | GI50 [8]: > 100 µM (inactive) | GI50 [9]: > 100 µM (inactive) | GI50 [10]: > 100 µM (inactive) | GI50 [11]: > 100 µM (inactive) | GI50 [13]: > 100 µM (inactive) | GI50 [14]: > 100 µM (inactive) | GI50 [15]: > 100 µM (inactive) | GI50 [16]: > 100 µM (inactive) | GI50 [17]: > 100 µM (inactive) | GI50 [18]: > 100 µM (inactive) | GI50 [19]: > 100 µM (inactive) | GI50 [57]: > 100 µM (inactive) | GI50 [58]: > 100 µM (inactive) | GI50 [20]: > 100 µM (inactive) | GI50 [21]: > 100 µM (inactive) | GI50 [22]: 16.4 µM (inactive) | GI50 [23]: > 100 µM (inactive) | GI50 [24]: > 100 µM (inactive) | GI50 [25]: > 100 µM (inactive) | GI50 [26]: > 100 µM (inactive) | GI50 [27]: > 100 µM (inactive) | GI50 [28]: > 100 µM (inactive) | GI50 [30]: > 100 µM (inactive) | GI50 [31]: 4.84 µM (inactive) | GI50 [32]: > 100 µM (inactive) | GI50 [33]: > 100 µM (inactive) | GI50 [34]: > 100 µM (inactive) | GI50 [35]: > 100 µM (inactive) | GI50 [36]: > 100 µM (inactive) | GI50 [37]: > 100 µM (inactive) | GI50 [38]: > 100 µM (inactive) | GI50 [39]: > 100 µM (inactive) | GI50 [40]: > 100 µM (inactive) | GI50 [41]: > 100 µM (inactive) | GI50 [42]: > 100 µM (inactive) | GI50 [43]: > 100 µM (inactive) | GI50 [44]: > 100 µM (inactive) | GI50 [45]: > 100 µM (inactive) | GI50 [46]: > 100 µM (inactive) | GI50 [47]: > 100 µM (inactive) | GI50 [48]: > 100 µM (inactive) | GI50 [49]: > 100 µM (inactive) | GI50 [50]: > 100 µM (inactive) | GI50 [51]: > 100 µM (inactive) | GI50 [53]: > 100 µM (inactive) | GI50 [54]: > 100 µM (inactive) | GI50 [55]: > 100 µM (inactive) | GI50 [56]: > 100 µM (inactive)

COc1ccc(Nc2nc3cc(C(F)(F)F)ccc3n3cccc23)cc1OC
GI50 [1]: 14.3 µM (inactive) | GI50 [2]: 10.7 µM (inactive) | GI50 [3]: 20.3 µM (inactive) | GI50 [4]: 12.6 µM (inactive) | GI50 [5]: 18.6 µM (inactive) | GI50 [6]: 10.6 µM (inactive) | GI50 [7]: 11.4 µM | GI50 [8]: 8.15 µM (inactive) | GI50 [9]: 17.6 µM (inactive) | GI50 [10]: 10.6 µM (inactive) | GI50 [11]: 17.5 µM (inactive) | GI50 [12]: 10.4 µM (inactive) | GI50 [13]: 24.2 µM (inactive) | GI50 [14]: 15.6 µM (inactive) | GI50 [15]: 19.4 µM (inactive) | GI50 [16]: 20.7 µM (inactive) | GI50 [17]: 4.7 µM (inactive) | GI50 [18]: 28.2 µM (inactive) | GI50 [19]: 10.3 µM (inactive) | GI50 [57]: 7.85 µM (inactive) | GI50 [20]: 14.1 µM (inactive) | GI50 [22]: 16 µM (inactive) | GI50 [23]: 15.7 µM (inactive) | GI50 [25]: 27.9 µM (inactive) | GI50 [26]: 15.5 µM (inactive) | GI50 [27]: 10.8 µM (inactive) | GI50 [28]: 16.8 µM (inactive) | GI50 [59]: 9.04 µM (inactive) | GI50 [29]: 14.7 µM (inactive) | GI50 [30]: 9.89 µM (inactive) | GI50 [31]: 29.2 µM (inactive) | GI50 [32]: 16.6 µM (inactive) | GI50 [33]: 22.3 µM (inactive) | GI50 [34]: 15.5 µM (inactive) | GI50 [35]: 25.5 µM (inactive) | GI50 [36]: 26.7 µM (inactive) | GI50 [37]: 15.7 µM (inactive) | GI50 [38]: 10.3 µM (inactive) | GI50 [39]: 27.9 µM (inactive) | GI50 [40]: 12.1 µM (inactive) | GI50 [41]: 8.99 µM (inactive) | GI50 [42]: 20.3 µM (inactive) | GI50 [43]: 17.7 µM (inactive) | GI50 [44]: 22.8 µM (inactive) | GI50 [45]: 17.3 µM (inactive) | GI50 [46]: 19.8 µM (inactive) | GI50 [47]: 23.3 µM (inactive) | GI50 [48]: 14 µM (inactive) | GI50 [49]: 34.7 µM (inactive) | GI50 [50]: 17.8 µM (inactive) | GI50 [51]: 13.6 µM (inactive) | GI50 [52]: 14.5 µM (inactive) | GI50 [54]: 6.37 µM (inactive) | GI50 [55]: 12.6 µM (inactive) | GI50 [56]: 15.2 µM (inactive)

C#C[C@]1(O)CC[C@H]2[C@@H]3CCC4=C/C(=N/OC(=O)c5cccc6cc7ccccc7nc56)CC[C@@H]4[C@H]3CC[C@@]21CC
GI50 [1]: > 100 µM (inactive) | GI50 [2]: 52.2 µM (inactive) | GI50 [5]: > 100 µM (inactive) | GI50 [6]: > 100 µM (inactive) | GI50 [7]: > 100 µM | GI50 [8]: > 100 µM (inactive) | GI50 [9]: > 100 µM (inactive) | GI50 [10]: > 100 µM (inactive) | GI50 [11]: > 100 µM (inactive) | GI50 [12]: > 100 µM (inactive) | GI50 [14]: > 100 µM (inactive) | GI50 [15]: > 100 µM (inactive) | GI50 [16]: > 100 µM (inactive) | GI50 [17]: > 100 µM (inactive) | GI50 [18]: > 100 µM (inactive) | GI50 [19]: > 100 µM (inactive) | GI50 [57]: > 100 µM (inactive) | GI50 [58]: > 100 µM (inactive) | GI50 [20]: > 100 µM (inactive) | GI50 [21]: > 100 µM (inactive) | GI50 [23]: > 100 µM (inactive) | GI50 [24]: 49.7 µM (inactive) | GI50 [25]: > 100 µM (inactive) | GI50 [26]: > 100 µM (inactive) | GI50 [27]: > 100 µM (inactive) | GI50 [28]: > 100 µM (inactive) | GI50 [59]: > 100 µM (inactive) | GI50 [29]: > 100 µM (inactive) | GI50 [30]: 44.4 µM (inactive) | GI50 [31]: > 100 µM (inactive) | GI50 [32]: 76 µM (inactive) | GI50 [33]: > 100 µM (inactive) | GI50 [34]: > 100 µM (inactive) | GI50 [35]: > 100 µM (inactive) | GI50 [36]: > 100 µM (inactive) | GI50 [37]: > 100 µM (inactive) | GI50 [39]: > 100 µM (inactive) | GI50 [40]: > 100 µM (inactive) | GI50 [41]: > 100 µM (inactive) | GI50 [42]: > 100 µM (inactive) | GI50 [43]: > 100 µM (inactive) | GI50 [45]: > 100 µM (inactive) | GI50 [46]: > 100 µM (inactive) | GI50 [47]: > 100 µM (inactive) | GI50 [48]: > 100 µM (inactive) | GI50 [49]: > 100 µM (inactive) | GI50 [50]: > 100 µM (inactive) | GI50 [51]: > 100 µM (inactive) | GI50 [52]: > 100 µM (inactive) | GI50 [53]: > 100 µM (inactive) | GI50 [54]: 33.8 µM (inactive) | GI50 [55]: > 100 µM (inactive) | GI50 [56]: > 100 µM (inactive)
